# Measurements from patent publication US20110098296A1, “Thiazole And Oxazole Kinase Inhibitors” (priority 2007, published 2011).
# Counter-ions that a name gives are not always drawn.
# What was measured:
# EGFR = target: T1, EGFR (Homo sapiens, UniProt P00533); test: EGFR substrate phosphorylation assay (HTRF); assay type: biochemical
# T1 construct: made in house; host or cells: baculovirus expression system
# Method in brief: (§1)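 Baculovirus-expressed kinase (0.8 nM EGFR or 10 nM ErbB2 in enzyme mix) with Peptide C 0.8 μM and ATP 20 μM (substrate-mix levels), MOPS pH 7.5, MnCl2; 90 min, 20 °C, HTRF anti-phosphotyrosine. Method A adds 1 h enzyme–compound preincubation; B none. pIC50, final compound 0.00027–47.6 μM.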
# ErbB2 = target: T2, ErbB2 (Homo sapiens, UniProt P04626); test: ErbB-2 substrate phosphorylation assay (HTRF); assay type: biochemical
# T2 construct: made in house; host or cells: baculovirus expression system
# Method in brief: as §1
# HN5 tumor cells [1] = test: Method A: Methylene Blue Growth Inhibition Assay, HN5; assay type: cell-based; conditions: Homo sapiens, 72 h, 3 days
# Procedure: (§2) Human breast (BT474) and head and neck (HN5) tumor cells were cultured in low glucose DMEM (Life Technologies 12320-032) containing 10% fetal bovine serum (FBS). Human colon tumor cells (Colo205) were cultured in DMEM (Invitrogen, 10564) containing 10% FBS. The SV40 transformed human mammary epithelial cell line HB4a was transfected with either human H-ras cDNA (HB4a r4.2) or the human c-ErbB2 cDNA (HB4a c5.2). The HB4a clones were cultured in RPMI containing 10% FBS, insulin (5 g/mL), hydrocortisone (5 g/mL), supplemented with the selection agent hygromycin B (50 g/mL). All lines were grown in a humidified incubator at 37° C. in 95% air, 5% CO2. Cells were harvested using trypsin/EDTA, counted using a haemocytometer, and plated in 100 μL of the appropriate media, at the following densities, in a 96-well tissue culture plate (Falcon 3075): BT474 10,000 cells/well, HN5 3,000 cells/well. The next day, compounds were diluted in DMEM containing […] gentamicin, at twice the final required concentration, from 10 mM stock solutions in DMSO. 100 μl/well of these dilutions were added to the 100 μL of media currently on the cell plates. Medium containing 0.6% DMSO was added to control wells. Compounds diluted in DMEM were added to all cell lines. The final concentration of DMSO in all wells was 0.3%. Cells were returned to the incubator (37° C., […]) for 3 days. Medium was then removed by aspiration. Cell biomass was estimated by staining cells with 90 μL/well methylene blue (Sigma M9140, 0.5% in 1:1 EtOH:H2O), and incubation at room temperature for at least 30 minutes. Stain was removed, and the plates rinsed by immersion in deionized H2O and air-dried. To release stain from the cells 100 μL of solubilization solution were added (1% N-lauroyl sarcosine, sodium salt, Sigma L5125, in PBS), and plates were shaken gently for about 30 minutes. Optical density at 620 nm was measured on a microplate reader. Percent inhibition of cell growth was calculated relative to vehicle-treated control wells. Concentration of compound that inhibits 50% of control cell growth (IC50) was interpolated using nonlinear regression (Levenberg-Marquardt) and the equation,
# (§3) y=Vmax*(1−(x/(K+x)))+Y2, where “K” was equal to the IC50.
# BT474 tumor cells [2] = test: Method A: Methylene Blue Growth Inhibition Assay, BT474; assay type: cell-based; conditions: Homo sapiens, BT-474, 72 h, 3 days
# Procedure: as §2, §3
# Colo205 tumor cells [3] = test: Method A: Methylene Blue Growth Inhibition Assay, Colo205; assay type: cell-based; conditions: Homo sapiens, COLO 205, 72 h, 3 days
# Procedure: as §2, §3
# HN5 tumor cells [4] = test: Method B: CellTiter-Glo Growth Inhibition Assay, HN5; assay type: cell-based; conditions: Homo sapiens, 72 h, 3 days
# Procedure: (§4) Human breast tumor cells (BT474) were cultured in RPMI, (Invitrogen, 22400) containing 10% fetal bovine serum (FBS). Human head and neck tumor cells (HN5) were cultured in low glucose DMEM (Invitrogen, 12320) containing 10% FBS. Human colon tumor cells (Colo205) were cultured in DMEM (Invitrogen, 10564) containing 10% FBS. Human melanoma cancer cells (SK-MEL-28) were incubated in DMEM (Invitrogen). All cell lines were maintained at 37° C. in a humidified 5% CO2, 95% air incubator. Cells were harvested using trypsin/EDTA, counted using a haemocytometer, and plated in 30 μL of the appropriate media described above, at the following densities, in a half-area, black-walled, 96-well tissue culture plate (Corning 3882): BT474 3,000 cells/well, HN5 500 cells/well, Colo205 3,000 cells/well, and SK-MEL-28 500 cells/well). The next day, compounds were diluted in DMEM containing […] gentamicin, from 10 mM stock solutions in DMSO. 30 μL/well of these dilutions were added to the 30 μL/well of media currently on the cell plates. Medium containing 0.6% DMSO was added to control wells. The final concentration of DMSO in all wells was 0.3%. Cells were incubated at 37° C., 5% CO2 for 3 days. Cell biomass was estimated using CellTiter-Glo® reagent (Promega G7571). Briefly, plates were removed from the incubator and allowed to equilibrate to rt for 30 minutes. 25-60 μL of CellTiter-Glo® reagent were added to each well of the treated cells and plates were shaken on an orbital plate shaker for 2 mins. Plates were incubated without shaking for 30 more mins and read in a luminometer with an integration time of 0.5 seconds per well. Percent inhibition of cell growth was calculated relative to vehicle-treated control wells. Concentration of compound that inhibits 50% of vehicle control cell growth (IC50) was interpolated using nonlinear regression (Levenberg-Marquardt) and the equation, y=V max*(1−(x/(K+x)))+Y2, where “K” was equal to the IC50.
# BT474 tumor cells [5] = test: Method B: CellTiter-Glo Growth Inhibition Assay, BT474; assay type: cell-based; conditions: Homo sapiens, BT-474, 72 h, 3 days
# Procedure: as §4
# Colo205 tumor cells [6] = test: Method B: CellTiter-Glo Growth Inhibition Assay, Colo205; assay type: cell-based; conditions: Homo sapiens, COLO 205, 72 h, 3 days
# Procedure: as §4
# [7] = Method (A): Enzyme Mix incubated with compound at 20° C. for 1 hr, reaction started by adding Substrate Mix
# [8] = Method (B): Substrate Mix added to compound first, reaction started by adding Enzyme Mix
# T1 sequence (P00533 25-1210): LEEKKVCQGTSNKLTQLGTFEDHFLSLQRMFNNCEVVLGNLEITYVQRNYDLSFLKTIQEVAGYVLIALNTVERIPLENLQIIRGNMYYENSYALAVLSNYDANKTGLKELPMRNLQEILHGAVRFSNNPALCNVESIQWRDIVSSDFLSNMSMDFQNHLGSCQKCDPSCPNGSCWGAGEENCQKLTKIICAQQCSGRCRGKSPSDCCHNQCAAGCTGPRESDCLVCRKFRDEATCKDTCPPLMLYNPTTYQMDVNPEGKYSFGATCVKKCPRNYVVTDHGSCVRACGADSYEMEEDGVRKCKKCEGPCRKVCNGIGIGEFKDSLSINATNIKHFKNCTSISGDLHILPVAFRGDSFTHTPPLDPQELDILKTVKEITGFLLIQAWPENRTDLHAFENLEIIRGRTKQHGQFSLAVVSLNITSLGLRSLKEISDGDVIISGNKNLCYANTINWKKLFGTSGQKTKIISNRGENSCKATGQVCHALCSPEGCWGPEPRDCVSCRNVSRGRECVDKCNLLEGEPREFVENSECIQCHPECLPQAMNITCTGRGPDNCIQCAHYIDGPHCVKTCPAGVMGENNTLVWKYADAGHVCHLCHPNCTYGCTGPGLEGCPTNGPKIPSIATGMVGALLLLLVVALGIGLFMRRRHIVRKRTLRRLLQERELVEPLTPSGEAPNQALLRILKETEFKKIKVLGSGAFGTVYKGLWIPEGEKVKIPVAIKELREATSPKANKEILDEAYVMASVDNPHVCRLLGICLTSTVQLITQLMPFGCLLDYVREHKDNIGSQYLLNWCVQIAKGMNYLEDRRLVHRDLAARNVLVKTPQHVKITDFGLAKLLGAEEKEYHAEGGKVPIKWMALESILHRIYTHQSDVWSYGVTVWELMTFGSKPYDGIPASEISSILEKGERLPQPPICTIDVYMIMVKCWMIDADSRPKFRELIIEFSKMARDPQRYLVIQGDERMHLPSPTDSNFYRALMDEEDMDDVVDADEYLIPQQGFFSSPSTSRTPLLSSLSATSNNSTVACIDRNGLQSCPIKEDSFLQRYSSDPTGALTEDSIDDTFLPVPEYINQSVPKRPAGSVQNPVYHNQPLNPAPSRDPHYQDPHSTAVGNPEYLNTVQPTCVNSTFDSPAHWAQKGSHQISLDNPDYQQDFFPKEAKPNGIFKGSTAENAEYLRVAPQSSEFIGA
# T2 sequence (P04626 23-1255): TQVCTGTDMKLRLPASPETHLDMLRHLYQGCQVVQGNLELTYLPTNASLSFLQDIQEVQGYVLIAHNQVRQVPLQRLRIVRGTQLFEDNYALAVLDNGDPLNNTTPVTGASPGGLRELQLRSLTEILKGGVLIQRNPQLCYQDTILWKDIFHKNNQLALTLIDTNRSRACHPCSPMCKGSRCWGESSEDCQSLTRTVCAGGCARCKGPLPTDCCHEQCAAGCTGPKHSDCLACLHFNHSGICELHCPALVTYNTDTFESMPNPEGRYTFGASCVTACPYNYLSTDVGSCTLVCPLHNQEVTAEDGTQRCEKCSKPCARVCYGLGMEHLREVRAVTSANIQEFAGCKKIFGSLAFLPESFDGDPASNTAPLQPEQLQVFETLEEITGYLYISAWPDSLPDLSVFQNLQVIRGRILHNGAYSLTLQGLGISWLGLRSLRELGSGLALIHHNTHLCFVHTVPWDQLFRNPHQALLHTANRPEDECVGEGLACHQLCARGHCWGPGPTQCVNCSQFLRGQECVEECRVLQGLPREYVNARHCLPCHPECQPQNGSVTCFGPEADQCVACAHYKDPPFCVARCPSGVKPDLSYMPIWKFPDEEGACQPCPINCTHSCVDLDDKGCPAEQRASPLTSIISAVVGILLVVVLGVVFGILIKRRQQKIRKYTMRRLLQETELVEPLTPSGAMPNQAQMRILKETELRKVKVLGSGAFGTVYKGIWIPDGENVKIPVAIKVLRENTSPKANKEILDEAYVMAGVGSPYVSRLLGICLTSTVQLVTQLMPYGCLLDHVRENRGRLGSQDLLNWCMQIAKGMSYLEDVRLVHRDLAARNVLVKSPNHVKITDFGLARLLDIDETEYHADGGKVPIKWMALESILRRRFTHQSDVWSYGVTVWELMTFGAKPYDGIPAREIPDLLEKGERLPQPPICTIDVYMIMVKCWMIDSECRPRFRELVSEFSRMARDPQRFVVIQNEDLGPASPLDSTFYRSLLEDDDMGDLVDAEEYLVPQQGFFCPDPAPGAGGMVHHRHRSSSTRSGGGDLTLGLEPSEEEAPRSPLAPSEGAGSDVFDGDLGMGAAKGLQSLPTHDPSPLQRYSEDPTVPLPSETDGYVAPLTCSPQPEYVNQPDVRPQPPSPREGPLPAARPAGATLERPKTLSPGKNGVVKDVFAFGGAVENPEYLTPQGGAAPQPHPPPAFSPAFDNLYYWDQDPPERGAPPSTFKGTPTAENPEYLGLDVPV
SMILES,IC50 (EGFR; [7]) [nM],IC50 (ErbB2; [7]) [nM],IC50 (HN5 tumor cells [1]) [nM],IC50 (BT474 tumor cells [2]) [nM],IC50 (Colo205 tumor cells [3]) [nM],IC50 (EGFR; [8]) [nM],IC50 (ErbB2; [8]) [nM],IC50 (HN5 tumor cells [4]) [nM],IC50 (BT474 tumor cells [5]) [nM],IC50 (Colo205 tumor cells [6]) [nM]
CN(C)CCOc1ccc(Nc2nccc(-c3sc(N)nc3-c3cccc(NC(=O)C4CCCCC4)c3)n2)cc1Cl [Example 61],< 100,< 100,< 100,100 to 1000,100 to 1000,,,,,
"Nc1nc(-c2cccc(NC(=O)c3c(F)cccc3F)c2)c(-c2ccnc(Nc3ccc4c(c3)CNCC4)n2)s1 [Example 21, N-(3-{2-Amino-5-[2-(1,2,3,4-tetrahydro-7-isoquinolinylamino)-4-pyrimidinyl]-1,3-thiazol-4-yl}phenyl)-2,6-difluorobenzamide]",< 100,< 100,< 100,< 100,100 to 1000,,,,,
"Nc1nc(-c2cccc(NC(=O)C3CCCCC3)c2)c(-c2ccnc(Nc3cccc(-c4cnco4)c3)n2)s1 [Example 62, N-{3-[2-Amino-5-(2-{[3-(1,3-oxazol-5-yl)phenyl]amino}-4-pyrimidinyl)-1,3-thiazol-4-yl]phenyl}cyclohexanecarboxamide]",< 100,< 100,< 100,100 to 1000,100 to 1000,,,,,
"CNc1nc(-c2cccc(NC(=O)c3cc(F)ccc3F)c2)c(-c2ccnc(Nc3ccc(OC)c(F)c3)n2)s1 [Example 51, 2,5-Difluoro-N-{3-[5-(2-{[3-fluoro-4-(methyloxy)phenyl]amino}-4-pyrimidinyl)-2-(methylamino)-1,3-thiazol-4-yl]phenyl}benzamide]",< 100,< 100,> 1000,100 to 1000,> 1000,,,,,
Nc1nc(-c2cccc(NC(=O)c3cc(F)ccc3F)c2)c(-c2ccnc(Nc3ccc4c(c3)CNCC4)n2)s1 [Example 57],< 100,< 100,< 100,< 100,100 to 1000,,,,,
CN(C)CCCNc1ccc(Nc2nccc(-c3sc(N)nc3-c3cccc(NC(=O)C4CCCCC4)c3)n2)cc1F [Example 60],< 100,< 100,< 100,100 to 1000,100 to 1000,,,,,
"COc1ccc(Nc2nccc(-c3sc(NCCN4CCOCC4)nc3-c3cccc(NC(=O)c4cc(F)ccc4F)c3)n2)cc1F [Example 53, 2,5-Difluoro-N-[3-(5-(2-{[3-fluoro-4-(methyloxy)phenyl]amino}-4-pyrimidinyl)-2-{[2-(4-morpholinyl)ethyl]amino}-1,3-thiazol-4-yl)phenyl]benzamide]",< 100,< 100,< 100,< 100,100 to 1000,,,,,
Nc1nc(-c2cccc(NC(=O)c3c(F)cccc3F)c2)c(-c2ccnc(Nc3cccc(CCS(N)(=O)=O)c3)n2)s1 [Example 8],< 100,< 100,,,,,,< 100,< 100,100 to 1000

# The remaining lines, values ahead:
IC50 (EGFR; [7]) [nM],IC50 (ErbB2; [7]) [nM],IC50 (HN5 tumor cells [1]) [nM],IC50 (BT474 tumor cells [2]) [nM],IC50 (Colo205 tumor cells [3]) [nM],IC50 (EGFR; [8]) [nM],IC50 (ErbB2; [8]) [nM],IC50 (HN5 tumor cells [4]) [nM],IC50 (BT474 tumor cells [5]) [nM],IC50 (Colo205 tumor cells [6]) [nM],SMILES
< 100,< 100,< 100,< 100,100 to 1000,,,,,,"CN(C)CCCNc1ccc(Nc2nccc(-c3sc(N)nc3-c3cccc(NC(=O)c4cccn4C)c3)n2)cc1F [Example 65, N-[3-(2-Amino-5-{2-[(4-{[3-(dimethylamino)propyl]amino}-3-fluorophenyl)amino]-4-pyrimidinyl}-1,3-thiazol-4-yl)phenyl]-1-methyl-1H-pyrrole-2-carboxamide]"
< 100,< 100,100 to 1000,100 to 1000,> 1000,,,,,,"Nc1nc(-c2cccc(OCc3ccccc3)c2)c(-c2ccnc(Nc3ccc4c(c3)CNCC4)n2)s1 [Example 71, N-[4-(2-Amino-4-{3-[(phenylmethyl)oxy]phenyl}-1,3-thiazol-5-yl)-2-pyrimidinyl]-1,2,3,4-tetrahydro-7-isoquinolinamine]"
< 100,< 100,100 to 1000,100 to 1000,100 to 1000,,,,,,"CN(C)CCOc1ccc(Nc2nccc(-c3sc(N)nc3-c3cccc(OCc4ccccc4)c3)n2)cc1Cl [Example 70, 4-(2-Amino-4-{3-[(phenylmethyl)oxy]phenyl}-1,3-thiazol-5-yl)-N-(3-chloro-4-{[2-(dimethylamino)ethyl]oxy}phenyl)-2-pyrimidinamine]"
,,< 100,100 to 1000,> 1000,100 to 1000,100 to 1000,,,,"COc1ccc(Nc2nccc(-c3scnc3-c3cccc(NC(=O)c4c(F)cccc4F)c3)n2)cc1F [Example 87, 2,6-Difluoro-N-{3-[5-(2-{[3-fluoro-4-(methyloxy)phenyl]amino}-4-pyrimidinyl)-1,3-thiazol-4-yl]phenyl}benzamide]"
< 100,< 100,,,,,,100 to 1000,100 to 1000,> 1000,"O=C1COc2ccc(Nc3nccc(-c4scnc4-c4cccc(NC(=O)c5cc(F)ccc5F)c4)n3)cc2N1 [Example 99, 2,5-Difluoro-N-[3-(5-{2-[(3-oxo-3,4-dihydro-2H-1,4-benzoxaziN-6-yl)amino]-4-pyrimidinyl}-1,3-thiazol-4-yl)phenyl]benzamide hydrochloride]"
100 to 1000,,< 100,100 to 1000,,,100 to 1000,,,,O=C(Nc1cccc(-c2ncsc2-c2ccnc(Nc3cccc(F)c3)n2)c1)c1c(F)cccc1F [Example 88]
< 100,< 100,,,,,,100 to 1000,100 to 1000,100 to 1000,"COc1ccc(Nc2nccc(-c3scnc3-c3cccc(NC(=O)Cc4cccs4)c3)n2)cc1OCCN(C)C [Example 78, N-{3-[5-(2-{[3-{[2-(Dimethylamino)ethyl]oxy}-4-(methyloxy)phenyl]amino}-4-pyrimidinyl)-1,3-thiazol-4-yl]phenyl}-2-(2-thienyl)acetamide]"
< 100,100 to 1000,,,,,,100 to 1000,100 to 1000,100 to 1000,"O=C(Cc1cccs1)Nc1cccc(-c2ncsc2-c2ccnc(Nc3ccc4c(c3)NC(=O)CO4)n2)c1 [Example 86, N-[3-(5-{2-[(3-Oxo-3,4-dihydro-2H-1,4-benzoxaziN-6-yl)amino]-4-pyrimidinyl}-1,3-thiazol-4-yl)phenyl]-2-(2-thienyl)acetamide hydrochloride]"
